Experimental data: patent publication US20150064286A1, “PREPARATION AND COMPOSITIONS OF HIGHLY BIOAVAILABLE ZEROVALENT SULFUR AND USES THEREOF” (EMORY UNIVERSITY, priority 2011, published 2015)

Assays:
[1] = Percentage bioactive sulfur contained in hydrogen sulfide prodrugs; assay type: physicochemical; conditions: sulfur capable of being converted into hydrogen sulfide in vivo
[2] = test system: p47^phox (a subunit of NOX); conditions: Shukla et al., BJU Int. 2009; cited from earlier work
[3] = test system: superoxide formation; conditions: Shukla et al., BJU Int. 2009; cited from earlier work
[4] = biological target: phosphodiesterase type 5 (PDE5) (Homo sapiens, UniProt O76074); conditions: Sparatore et al. 2011; cited from earlier work
[5] = test system: cavernosal smooth muscle; conditions: Shukla et al., BJU Int. 2009; cited from earlier work
[6] = test system: NADPH oxidase (NOX); conditions: Sparatore et al. 2011; cited from earlier work
[7] = test system: angiogenesis; conditions: NaHS in the drinking water, via increasing VEGF expression, Givvimani et al. 2011; cited from earlier work
[8] = test system: pregnant rat uterus; conditions: pregnant rat uterus in vitro, Sidhu et al. 2001; cited from earlier work
[9] = Solubility in carbon disulfide; assay type: physicochemical
Experimental: The solubility of the composition in carbon disulfide was obtained by adding 6 mL of carbon disulfide to 0.500 g of the final product and determining the weight of the residue.

Q: For `NC(=S)c1ccc(O)cc1` [4-hydroxythiobenzamide], which “% Bioactive sulfur (w/w)” value [1] is on record?
A: Its value is 20.9 % (w/w).

Q: For `CCCc1nn(C)c2c(=O)[nH]c(-c3cc(S(=O)(=O)N4CCN(CC(=O)Oc5ccc(-c6cc(=S)ss6)cc5)CC4)ccc3OCC)nc12` [ACS 6], which “inhibition of expression of p47phox” value [2] is on record?
A: The value was “more than sildenafil citrate”.

Q: What about the “inhibition of superoxide formation” value [3] of the same compound?
A: Its value is “more than sildenafil citrate”.

Q: What about the “effect of H2S released by ACS6 on PDE5” value [4] of the same compound?
A: Its value is “inhibits”.

Q: And the “relaxation of cavernosal smooth muscle” value [5]?
A: Its value is “equipotently”.

Q: And the “effect of H2S released by ACS6 on NOX expression activity” value [6]?
A: The value was “inhibits”.

Q: And the “% Bioactive sulfur (w/w)” value [1]?
A: The value was 3.5 % (w/w).

Q: Which “% Bioactive sulfur (w/w)” value [1] does the source give for `O=C(Cc1ccccc1Nc1c(Cl)cccc1Cl)Oc1ccc(-c2cc(=S)ss2)cc1` [ACS 15] here?
A: Its value is 6.3 % (w/w).

Q: With `O=C(CCC/C=C\C[C@@H]1[C@@H](CC[C@@H](O)CCc2ccccc2)[C@H](O)C[C@@H]1O)Oc1ccc(-c2cc(=S)ss2)cc1` [ACS 67] as the compound, how does the “% Bioactive sulfur (w/w)” value [1] read?
A: Its value is 5.3 % (w/w).

Q: Which “% Bioactive sulfur (w/w)” value [1] does the source give for `COc1ccc2c(c1)c(CC(=O)Oc1ccc(-c3cc(=S)ss3)cc1)c(C)n2C(=O)c1ccc(Cl)cc1` [ATB 343] here?
A: Its value is 5.6 % (w/w).

Q: For `COc1ccc2cc(C(C)C(=O)Oc3ccc(C(N)=S)cc3)ccc2c1` (stereo not drawn) [ATB 346], which “% Bioactive sulfur (w/w)” value [1] is on record?
A: Its value is 8.8 % (w/w).

Q: For `C=CCSSCC=C` [Diallyl disulfide], which “% Bioactive sulfur (w/w)” value [1] is on record?
A: The value was 45.1 % (w/w).

Q: With `C=CCSSSCC=C` [Diallyl trisulfide] as the compound, how does the “% Bioactive sulfur (w/w)” value [1] read?
A: The value was 53.9 % (w/w).

Q: With `c1ccc(CSSSCc2ccccc2)cc1` [Dibenzyl trisulfide] as the compound, how does the “% Bioactive sulfur (w/w)” value [1] read?
A: The value was 11.5 % (w/w).

Q: For `C1COCCN1.COc1ccc(P(=S)(S)N2CCOCC2)cc1` (stereo not drawn) [GYY 4137], which “% Bioactive sulfur (w/w)” value [1] is on record?
A: Its value is 8.5 % (w/w).

Q: With `[Na+].[Na+].[S-2]` [Na2S] as the compound, how does the “% Bioactive sulfur (w/w)” value [1] read?
A: The value was 41 % (w/w).

Q: What does the source list for `S` [NaHS, sodium hydrogen sulfide]?
A: angiogenesis [7]: augmented angiogenesis; uterine spontaneous contractility [8]: significant dose-dependent decreases; % Bioactive sulfur (w/w) [1]: 57 % (w/w)

Q: For `[S]` [Pure alpha- or beta-elemental sulfur, elemental sulfur], which “Solubility in carbon disulfide” value [9] is on record?
A: The value was “completely soluble”.

Q: For `C[S+]([O-])CCCCN=C=S` (stereo not drawn) [Sulforaphane], which “% Bioactive sulfur (w/w)” value [1] is on record?
A: The value was 18 % (w/w).
